System: biotinylated m012 (RNA, aptamer) GGCGAAUUCUUCCGUUAUUGGAGCCAAGUCGCC
Test: competitive ELAA, absorbance 405 nm
Settings: 150 mM NaCl, 5 mM MgCl2; 50 mM HEPES pH 7.4 (wash), 25 °C; biotinylated SPC (6 µM) displaced; immobilised aptamer

binding: yes
SMILES: CCCCCCCCCCCCC/C=C/[C@@H](O)[C@@H](N)COP(=O)([O-])OCC[N+](C)(C)C
